Data: patent US20100047191A1, “NOVEL USE” (priority 2007, published 2010)

Tests used:
[1] = Hydroxyapatite microplate erosion method (phosphate release after 1% citric acid, pH 3.8); details: Example 7
Method: The wells of 96-well 200 μl microplates were filled with a concentrated suspension of high resolution hydroxyapatite (HA) powder (20 g HA in 200 ml acetone). The plates were allowed to dry under agitation (50 rpm on an orbital shaker) and then washed thoroughly with deionised water to remove any loose HA. For erosion experiments, the wells of the HA coated microplates were filled with deionised water and left to hydrate for 60 mins. The water was then removed and each of the 8 wells of one lane of the microplate filled with 200 μl of one of the agents to be tested. Each plate contained 12 lanes, so 6 agents could be tested in duplicate (at n=8) in each microplate. The actives were left in the wells for 30 mins under agitation, after which time the plates were again washed thoroughly with deionised water. The erosive challenge used for the study was an orange juice mimic, 1% citric acid, pH 3.8. The wells of the plate were exposed to 200 μl of the citric acid solution under agitation for 30 mins. After the acid challenge, 50 μl of the citric acid was removed from each well and placed into the corresponding well of a new 96-well microplate. 50 μl of vanadomolybdate reagent was then added to each well and after 5 mins, the absorbance of the solution in each well at 450 nm was read using a microplate plate reader. The test agents assessed using this technique were nanoparticulate zinc oxide aqueous suspension, 0.5 wt % in water, stabilised with both anionic and cationic dispersants (Nanoshield ZN-3008C and Nanoshield ZN-3014A respectively, both 70 nm average particle size and obtained from Nanophase Technologies, 1319 Marquette Drive, Romeoville, Ill. 60446. USA).
The chart contains data from one microplate, where treatments have been carried out in duplicate at n=8 each time, as described above. […] The positive control used was 300 ppm fluoride, and the negative control was deionised water.
An additional experiment was performed as described in Example 4, where the stabilising agent for the nanoparticulate zinc oxide (0.5 wt % suspension in water) was sodium hexametaphosphate (HMP) present in an amount of 2 wt % with respect to the zinc oxide (ie present in an amount of 0.01 wt %). […] The nanoparticulate zinc oxide was tested in the presence and absence of fluoride again, and at two different pH values (pH 7 and pH 9).
The experiments were performed as described in Example 4 above, using one side of a hydroxyapatite microplate (n=8). The test agents assessed in this case were a) 0.5 wt % Nanoshield ZN-3008C in water, b) 0.5 wt % zinc acetate, c) 0.5 wt % zinc citrate and d) 0.5 wt % zinc oxide (bulk material). […] Positive and negative controls used were 225 ppm fluoride and deionised water respectively.
A final hydroxyapatite microplate experiment was performed as described in Examples 4 and 5 where the stabilising agent for the nanoparticulate zinc oxide was either polyvinyl pyrrolidone (PVP) or Propylene glycol. […] The nanoparticulate zinc oxide was tested in the presence of fluoride in each case.

[2] = acidic acetate buffer at pH 4.5; cited from earlier work
[3] = Enamel anti-caries softening microhardness study (lactic acid buffer); set-up: species or system human; details: two cycles of 2 minute treatment and two hours 0.1M lactic acid buffer pH 4.5
Method: The study performed involved incubation of human enamel in 0.1M lactic acid buffer (pH 4.5), following a 2 minute treatment with one of the following four formulations: (A) 0.5% suspension of nano ZnO. […] (D) de-ionised water. The zinc oxide used was Nanoshield ZN-3008C as described above in Example 4. Specimens were washed with water in between treatments and erosion procedures. The acid exposure time was two hours, after which the specimens were rinsed in de-ionised water and re-treated with the appropriate formulation for 2 minutes. The specimens then were placed into the lactic acid for a further two hours. After the acid challenge they were washed thoroughly with de-ionised water and the microhardness measured. Six indents were obtained for each enamel specimen and each treatment was performed on six individual specimens (n=6).
The values for enamel hardness have been normalised relative to the individual baseline microhardness values, thus data at subsequent time points reflects softening of the enamel. The error bars in Graph 9 represent standard deviations.

[4] = 20-day in vitro erosion cycling study (microhardness); set-up: species or system human
Text: Human enamel specimens (3×3 mm) were ground and polished using silicon carbide paper. The top side of the specimens was ground using 1200-grit paper and then serially polished using 4000-grit paper followed by […] diamond polishing suspension. Each specimen was mounted on the end of an acrylic rod (¼″ diameter×2″ long) using superglue. The sides of each specimen were covered with an epoxy resin so that only the enamel surface was exposed. Eighteen specimens per group were used for the study. Each group was composed of 3 subgroups of 6 specimens. Initial hardness of the sound specimens was determined using a Vickers hardness indenter by applying a load of 200 g for 15 seconds. The average specimen microhardness was determined from four indentations on the surface of each specimen. Only specimens with a sound surface hardness of between 300 and 350 were accepted. A 50:50 mixture of pooled, human saliva and a mineral solution was used as the remineralisation medium in all treatment regimens, and the demineralising solution was 1% citric acid, pH 3.8. The four treatments considered were: Group A) Deionised water, Group B) 300 ppm Fluoride, Group C) 0.50 wt % ZnO in deionized water, Group D) 0.50 wt % ZnO in 300 ppm Fluoride. […] The cyclic treatment regimen consisted of five, two-minute acid challenges in the demineralizing solution and three, two-minute treatment periods (with stirring at 350 rpm). After each treatment, the specimens were rinsed with running deionized water and then placed back into the saliva remineralization system. This regimen was repeated for 10 days, after which time the specimens were analysed by remeasuring their microhardness. A further 10 days of cycling was then performed and a 20 day microhardness value measured.
Statistical analysis of the data above in Graph 4 was performed with a one-way analysis of variance using Sigma Stat (3.0) Software. ANOVA indicated a significant difference so pair wise comparisons between the groups was conducted (Student Newman Keuls test).

[5] = repeated acidic erosive challenges; placebo 13.9 μm; cited from earlier work
[6] = 0.5 wt % in 225 ppm fluoride solution, Graph 6
[7] = 0.5 wt % in deionised water, no fluoride, Graph 5

Row | Structure (SMILES) | preventing the demineralisation of hydroxyapatite, combination with 225 ppm fluoride compared with 225 ppm fluoride alone [1, 6] | preventing demineralisation of hydroxyapatite, compared with water [1, 7] | preventing the demineralisation of hydroxyapatite, compared with 225 ppm fluoride [1, 7] | decreasing acid dissolution of hydroxyapatite, compared with sodium fluoride [2] | protection from the lactic acid buffer challenge [3] | % VHN compared to baseline, After treatment/acid challenge ([3]; n=6) [%] | Change at 10 days (microhardness vs lesion baseline, mean) ([4]; 10 days cycling) | Post 10 days (Vickers microhardness, mean) ([4]; 10 days cycling: five 2-min 1% citric acid challenges and three 2-min treatments daily, saliva remineralisation) | Change at 20 days (microhardness vs lesion baseline, mean) ([4]; 20 days cycling) | Post 20 days (Vickers microhardness, mean) ([4]; 20 days cycling) | depth of complete mineral loss [5] [μm] | preventing the demineralisation of hydroxyapatite, combination with 225 ppm fluoride compared with water [1, 6]
1 | CC(=O)[O-].CC(=O)[O-].[Zn+2] [zinc acetate] | directionally superior but statistically equivalent to 225 ppm fluoride alone | statistically superior to water | statistically inferior to both the stabilised nanoparticulate zinc oxide and 225 ppm fluoride | almost as effective as sodium fluoride | – | – | – | – | – | – | – | –
2 | [F-].[Na+] [300 ppm F, sodium fluoride] | – | – | – | – | approximately 70% | 70 | −64.6 | 189.5 | −20.1 | 234.0 | – | –
3 | O=C([O-])CC(O)(CC(=O)[O-])C(=O)[O-].O=C([O-])CC(O)(CC(=O)[O-])C(=O)[O-].[Zn+2].[Zn+2].[Zn+2] [Zinc citrate, zinc citrate] | statistically inferior to fluoride alone | – | – | – | – | – | – | – | – | – | 10.7 | statistically superior to water
